{
  "source": "patent EP4782444A1",
  "about": "“CRYSTAL FORM OF PYRIMIDINE ANILINE COMPOUND, PREPARATION METHOD, AND USE” (TYK Medicines, Inc., priority 2023, dated 2025)",
  "key": {"[1]": {"experiment": "Solid-state stability study (HPLC and XRPD analysis)", "format": "physicochemical"}, "in vivo": {"experiment": "in vivo", "conditions": "rat, po, 30 mg/kg", "protocol": "(§1) SD rats received a single oral gavage administration of citrate crystalline form I, mesylate crystalline form I, and free base crystalline form I, respectively. Blood samples were collected at various time points to determine drug concentrations in rat plasma post administration of tested substance and calculate PK-related parameters.\n(§2) The prepared test sample solutions were analyzed by the analytical department of the present test facility using LC-MS/MS.\n(§3) Animals were fasted (≥10 h) with free access to water from the day before dosing. On the test day, rats were weighed respectively, marked at the tail, and blank blood samples were collected before administration. Blood was collected via tail vein.\n(§4) 0.1 mL of whole blood was collected into EDTA-Na2 anticoagulant tubes, inverted 3-4 times to mix well, centrifuged at 10,000 g, 4 °C for 5 min to separate plasma, and stored at - 80 °C until analysis. Blood was collected via tail vein.\n(§5) Plasma samples were analyzed by the analytical department of the test facility using LC-MS/MS."}, "[2]": {"conditions": "37 °C"}, "[3]": {"experiment": "Pharmacokinetic study in rats, single oral gavage", "conditions": "SD rats, 30 mpk", "protocol": "as §1, §2, §3, §4, §5"}, "EGFR exon 20ins": {"test_system": "EGFR exon 20ins", "conditions": "advanced non-small cell lung cancer; cited from earlier work"}},
  "note": "Read-outs that look alike come from different tables or passages of the source.",
  "data": [
    {"smiles": "C=CC(=O)Nc1cc(Nc2ncc(C(=O)OC(C)C)c(-c3cn(C)c4ccccc34)n2)c(OC)cc1N(C)[C@@H]1[C@@H]2CN(C)C[C@@H]21", "note": "[Citrate crystalline form I]", "values": [
      {"measurement": "Appearance", "setting": "[1]; 25°C/60%RH, day 3", "value": "Unchanged"},
      {"measurement": "Crystalline Form", "setting": "[1]; 25°C/60%RH, day 3, XRPD", "value": "Unchanged"},
      {"measurement": "Purity %", "setting": "[1]; 25°C/60%RH, day 3, open vial", "value": 98.68, "unit": "%"},
      {"measurement": "Appearance", "setting": "[1]; 25°C/60%RH, day 7", "value": "Unchanged"},
      {"measurement": "Crystalline Form", "setting": "[1]; 25°C/60%RH, day 7, XRPD", "value": "Unchanged"},
      {"measurement": "Purity %", "setting": "[1]; 25°C/60%RH, day 7, open vial", "value": 98.61, "unit": "%"},
      {"measurement": "Appearance", "setting": "[1]; 25°C/95±5%RH, day 3", "value": "Unchanged"},
      {"measurement": "Crystalline Form", "setting": "[1]; 25°C/95±5%RH, day 3, XRPD", "value": "Unchanged"},
      {"measurement": "Purity %", "setting": "[1]; 25°C/95±5%RH, day 3, open vial", "value": 98.66, "unit": "%"},
      {"measurement": "Appearance", "setting": "[1]; 25°C/95±5%RH, day 7", "value": "Unchanged"},
      {"measurement": "Crystalline Form", "setting": "[1]; 25°C/95±5%RH, day 7, XRPD", "value": "Unchanged"},
      {"measurement": "Purity %", "setting": "[1]; 25°C/95±5%RH, day 7, open vial", "value": 98.67, "unit": "%"},
      {"measurement": "Appearance", "setting": "[1]; 40°C/75%RH, day 3", "value": "Unchanged"},
      {"measurement": "Crystalline Form", "setting": "[1]; 40°C/75%RH, day 3, XRPD", "value": "Unchanged"},
      {"measurement": "Purity %", "setting": "[1]; 40°C/75%RH, day 3, open vial", "value": 98.66, "unit": "%"},
      {"measurement": "Appearance", "setting": "[1]; 40°C/75%RH, day 7", "value": "Unchanged"},
      {"measurement": "Crystalline Form", "setting": "[1]; 40°C/75%RH, day 7, XRPD", "value": "Unchanged"},
      {"measurement": "Purity %", "setting": "[1]; 40°C/75%RH, day 7, open vial", "value": 98.59, "unit": "%"},
      {"measurement": "Appearance", "setting": "[1]; 60 °C, day 3", "value": "Unchanged"},
      {"measurement": "Crystalline Form", "setting": "[1]; 60 °C, day 3, XRPD", "value": "Unchanged"},
      {"measurement": "Purity %", "setting": "[1]; 60 °C, day 3, open vial", "value": 98.68, "unit": "%"},
      {"measurement": "Appearance", "setting": "[1]; 60 °C, day 7", "value": "Unchanged"},
      {"measurement": "Crystalline Form", "setting": "[1]; 60 °C, day 7, XRPD", "value": "Unchanged"},
      {"measurement": "Purity %", "setting": "[1]; 60 °C, day 7, open vial", "value": 98.66, "unit": "%"},
      {"measurement": "Appearance", "setting": "[1]; 80 °C, day 1", "value": "Unchanged"},
      {"measurement": "Crystalline Form", "setting": "[1]; 80 °C, day 1, XRPD", "value": "Unchanged"},
      {"measurement": "Purity %", "setting": "[1]; 80 °C, day 1, open vial", "value": 98.71, "unit": "%"},
      {"measurement": "Appearance", "setting": "[1]; 80 °C, day 3", "value": "Unchanged"},
      {"measurement": "Crystalline Form", "setting": "[1]; 80 °C, day 3, XRPD", "value": "Unchanged"},
      {"measurement": "Purity %", "setting": "[1]; 80 °C, day 3, open vial", "value": 98.68, "unit": "%"},
      {"measurement": "Purity %", "setting": "[1]; day 0 (baseline before storage), mean of 3 parallel experiments", "value": 98.74, "unit": "%"},
      {"measurement": "crystalline form and chemical purity", "setting": "[1]; under the five storage conditions", "value": "did not change significantly"},
      {"measurement": "AUC(0-t)", "setting": "in vivo", "value": 1700, "unit": "ng·h/mL"},
      {"measurement": "Cmax", "setting": "in vivo", "value": 126, "unit": "ng/mL"},
      {"measurement": "Tmax", "setting": "in vivo", "value": 5, "unit": "h"},
      {"measurement": "half-life", "setting": "in vivo", "value": 3.01, "unit": "h"},
      {"measurement": "Solubility", "setting": "[2]; FaSSIF, 0.5 h, 30 min", "value": ">5000", "unit": "µg/mL"},
      {"measurement": "Solubility", "setting": "[2]; FaSSIF, 2 h, 120 min", "value": "> 5000", "unit": "µg/mL"},
      {"measurement": "Solubility", "setting": "[2]; FaSSIF, 24 h, 1440 min", "value": 3990, "unit": "µg/mL"},
      {"measurement": "Solubility", "setting": "[2]; FeSSIF, 0.5 h, 30 min", "value": "> 5020", "unit": "µg/mL"},
      {"measurement": "Solubility", "setting": "[2]; FeSSIF, 2 h, 120 min", "value": "> 5020", "unit": "µg/mL"},
      {"measurement": "Solubility", "setting": "[2]; FeSSIF, 24 h, 1440 min", "value": "> 5020", "unit": "µg/mL"},
      {"measurement": "Solubility", "setting": "[2]; H2O, 0.5 h, 30 min", "value": 1910, "unit": "µg/mL"},
      {"measurement": "Solubility", "setting": "[2]; H2O, 2 h, 120 min", "value": 1990, "unit": "µg/mL"},
      {"measurement": "Solubility", "setting": "[2]; H2O, 24 h, 1440 min", "value": 2440, "unit": "µg/mL"},
      {"measurement": "Solubility", "setting": "[2]; SGF, 0.5 h, 30 min", "value": "> 5040", "unit": "µg/mL"},
      {"measurement": "Solubility", "setting": "[2]; SGF, 2 h, 120 min", "value": "> 5040", "unit": "µg/mL"},
      {"measurement": "Solubility", "setting": "[2]; SGF, 24 h, 1440 min", "value": "> 5040", "unit": "µg/mL"},
      {"measurement": "in vivo exposure in rats compared with free base crystalline form I", "setting": "[3]", "value": "higher"}
    ]},
    {"smiles": "C=CC(=O)Nc1cc(Nc2nccc(Nc3cc(Cl)c(F)cc3C(C)(C)O)n2)c(OC)cc1N1CC[C@@H](N(C)C)C1", "note": "[DZD9008]", "values": [
      {"measurement": "objective response rate", "setting": "EGFR exon 20ins", "value": 40, "unit": "%"}
    ]},
    {"smiles": "C=CC(=O)Nc1cc(Nc2ncc(C(=O)OC(C)C)c(-c3cn(C)c4ccccc34)n2)c(OC)cc1N(C)[C@@H]1[C@@H]2CN(C)C[C@@H]21", "note": "[Free base crystalline form I]", "values": [
      {"measurement": "Solubility", "setting": "physchem; 1,4-dioxane", "value": "< 270", "unit": "µg/mL"},
      {"measurement": "Solubility", "setting": "physchem; acetone", "value": "2220 to 4440", "unit": "µg/mL"},
      {"measurement": "Solubility", "setting": "physchem; acetonitrile", "value": "930 to 1010", "unit": "µg/mL"},
      {"measurement": "Solubility", "setting": "physchem; cyclohexane", "value": "< 330", "unit": "µg/mL"},
      {"measurement": "Solubility", "setting": "physchem; dce", "value": "61800 to 124000", "unit": "µg/mL"},
      {"measurement": "Solubility", "setting": "physchem; dcm", "value": "> 107000", "unit": "µg/mL"},
      {"measurement": "Solubility", "setting": "physchem; dmso", "value": "2600 to 2930", "unit": "µg/mL"},
      {"measurement": "Solubility", "setting": "physchem; ethanol", "value": "< 300", "unit": "µg/mL"},
      {"measurement": "Solubility", "setting": "physchem; ethyl acetate", "value": "< 290", "unit": "µg/mL"},
      {"measurement": "Solubility", "setting": "physchem; heptane", "value": "< 300", "unit": "µg/mL"},
      {"measurement": "Solubility", "setting": "physchem; ipac", "value": "< 300", "unit": "µg/mL"},
      {"measurement": "Solubility", "setting": "physchem; isopropanol", "value": "< 350", "unit": "µg/mL"},
      {"measurement": "Solubility", "setting": "physchem; mek", "value": "2780 to 4440", "unit": "µg/mL"},
      {"measurement": "Solubility", "setting": "physchem; meoh", "value": "< 400", "unit": "µg/mL"},
      {"measurement": "Solubility", "setting": "physchem; mtbe", "value": "< 330", "unit": "µg/mL"},
      {"measurement": "Solubility", "setting": "physchem; nmp", "value": "18200 to 27400", "unit": "µg/mL"},
      {"measurement": "Solubility", "setting": "physchem; thf", "value": "2550 to 3190", "unit": "µg/mL"},
      {"measurement": "Solubility", "setting": "physchem; water", "value": "< 270", "unit": "µg/mL"},
      {"measurement": "Solubility", "setting": "[2]; FaSSIF, 0.5 h, 30 min", "value": 130, "unit": "µg/mL"},
      {"measurement": "Solubility", "setting": "[2]; FaSSIF, 2 h, 120 min", "value": 130, "unit": "µg/mL"},
      {"measurement": "Solubility", "setting": "[2]; FaSSIF, 24 h, 1440 min", "value": 180, "unit": "µg/mL"},
      {"measurement": "Solubility", "setting": "[2]; FeSSIF, 0.5 h, 30 min", "value": 3530, "unit": "µg/mL"},
      {"measurement": "Solubility", "setting": "[2]; FeSSIF, 2 h, 120 min", "value": "> 5020", "unit": "µg/mL"},
      {"measurement": "Solubility", "setting": "[2]; FeSSIF, 24 h, 1440 min", "value": "> 5020", "unit": "µg/mL"},
      {"measurement": "Solubility", "setting": "[2]; H2O, 0.5 h, 30 min", "value": 10, "unit": "µg/mL"},
      {"measurement": "Solubility", "setting": "[2]; H2O, 2 h, 120 min", "value": 10, "unit": "µg/mL"},
      {"measurement": "Solubility", "setting": "[2]; H2O, 24 h, 1440 min", "value": 10, "unit": "µg/mL"},
      {"measurement": "Solubility", "setting": "[2]; SGF, 0.5 h, 30 min", "value": ">5000", "unit": "µg/mL"},
      {"measurement": "Solubility", "setting": "[2]; SGF, 2 h, 120 min", "value": "> 5000", "unit": "µg/mL"},
      {"measurement": "Solubility", "setting": "[2]; SGF, 24 h, 1440 min", "value": "> 5000", "unit": "µg/mL"},
      {"measurement": "AUC0-last", "setting": "[3]; plasma, 30 mg/kg", "value": 1122.05, "unit": "ng·h/mL"},
      {"measurement": "Cmax", "setting": "[3]; plasma, 30 mg/kg", "value": 126.5, "unit": "ng/mL"},
      {"measurement": "T1/2", "setting": "[3]; plasma, 30 mg/kg", "value": 2.19, "unit": "h"},
      {"measurement": "Tmax", "setting": "[3]; plasma, 30 mg/kg", "value": 4, "unit": "h"}
    ]}
  ]
}
